Here are results for five compounds from ChEMBL document CHEMBL3228014, “Preparation of the enantiomeric forms of 9-(5-deoxy-alpha-threo-pent-4-enofuranosyl)adenine and 9-(3,5-dideoxy-beta-D-glycero-pent-4-enofuranosyl)adenine and in vitro antileukemic screening” (1979).

This assay has as its system L1210. The assay is described as follows: Antiproliferative activity against mouse L1210 cells assessed as growth inhibition at 50 uM. The class given is functional.

Active and inactive are the calls of the source. The calls are words filed in the database; no cut-off is given here.

Consider `C=C1O[C@@H](n2cnc3c(N)ncnc32)CC1O` (single isomer, unassigned), for which the inhibition (as a rule, the share of the control response that was lost under treatment) is “inactive”.

Take `C=C1O[C@H](n2cnc3c(N)ncnc32)[C@@H](O)[C@@H]1O`: the inhibition result is “inactive”.

Take `C=C1C[C@@H](O)[C@H](n2cnc3c(N)ncnc32)O1`: the inhibition at 50 µM was found to be 50%.

As to `C=C1O[C@H](n2cnc3c(N)ncnc32)[C@H](O)[C@H]1O`, the inhibition result is “inactive”.

On to `C=C1O[C@@H](n2cnc3c(N)ncnc32)[C@H](O)[C@H]1O`, for which the inhibition entry is “inactive”.
